From US20240309018A1, “THIAZOLE-LACTAM-SPIROHETEROCYCLIC COMPOUNDS AND APPLICATIONS THEREOF” (D3 BIO (WUXI) CO., LTD, priority 2021, published 2024)

Columns and labels:
ERK2 kinase = ERK2 kinase (Homo sapiens (Human), UniProt P28482); test: ERK2 in vitro kinase activity assay (33P-ATP, MBP substrate, filter-binding); type: biochemical
Description: The ability of the compound to inhibit ERK1 and ERK2 kinase activity was measured.
20 mM Hepes (pH 7.5), 10 mM MgCl2, 1 mM ethylenebis(oxyethylenenitrilo)tetraacetic acid (EGTA), 0.02% Brij35, 0.02 mg/mL bovine serum albumin (BSA), 0.1 mM Na3VO4, 2 mM dithiothreitol (DTT), 1% DMSO.
The assay compound was dissolved in 100% DMSO to prepare a stock solution of specific concentration. The compound was serially diluted in DMSO solution using Integra Viaflo Assist smart pipette.
• 1) The substrate MBP was prepared in freshly prepared reaction buffer; • 2) ERK1 (or ERK2) kinase was added to the above-mentioned MBP solution and mixed gently; • 3) The compound dissolved in 100% DMSO was added to the kinase reaction system using ultrasound technology (Echo550; nanoliter range), and the mixture was incubated at room temperature for 20 minutes; • 4) 33P-ATP (specific concentration of […]) was added to the reaction system, and the reaction was started at this time; • 5) The mixture was incubated at room temperature for 2 hours; • 6) The amount of radioactivity was detected by filter-binding method; • 7) ERK1 (or ERK2) kinase activity was calculated as the ratio of the remaining kinase activity in the assay sample to the kinase activity of the control group (treated by DMSO). Curve was fitted using Prism (GraphPad software) and IC50 values were calculated. • 5.

[1] = tested on: human melanoma A375 cells; test: In vivo efficacy in subcutaneous xenograft tumor model of human melanoma A375; conditions: PO, BID, day 21, BALB/c nude mouse A375 xenograft
Description: The anti-tumor effect of WX001 was evaluated using a subcutaneous xenograft tumor model of human melanoma A375 cells in nude mouse.
• Species: mouse • Strain: BALB/c nude mouse • Age: 6-8 weeks old • Gender: female • Body weight: 18-22 grams • Supplier: Vital River Laboratory Animal Technology Co., Ltd.
• 1) Assay cells and culture: Human melanoma A375 cells were cultured in monolayer in vitro. The culture conditions were DMEM medium plus 10% fetal bovine serum, and a 37° C. 5% CO2 incubator. Routine digestion with trypsin-EDTA was performed twice a week for passage. When the cell saturation was 80%-90% and the amount reached the requirement, the cells were harvested, counted, and inoculated: • 2) Tumor tissue inoculation and grouping: 0.1 mL (5×10^5) of A375 cells were subcutaneously inoculated into the right armpit of each mouse. When the average tumor volume reached 170 mm^3, the animals were randomly divided into 4 groups and the administration was started.
• 3) Daily observation of assay animals: The development of this assay protocol and any modifications were evaluated and approved by the Institutional Animal Care and Use Committee (IACUC). […] Animals were monitored daily for health and death. […] Animal deaths and side effects in each group were recorded based on the number of animals in each group. • 4) Formulation of assay compound • a) Vehicle group: 5% DMSO+95% (20% HP-β-CD). • b) Assay compound group: A quantitative amount of the assay compound was weighed in a formulation bottle. […] A corresponding volume of 20% HP-β-CD was added and then the mixture was vortexed to obtain a homogeneous suspension. • 5) Tumor measurement and assay indicator: • a) Tumor diameter was measured twice a week with a vernier caliper. The calculation formula of tumor volume was: TV=1/2×a×b^2, wherein a and b represent the long and short diameters of tumor, respectively: • b) The tumor-inhibitory efficacy of the compound was evaluated by TGI (%). […]

human plasma albumin = test: Plasma protein binding (ultracentrifugation), human; type: in vitro ADME; also: tested at 0.2 µM
Description: (§1) The binding degree of the assay compound to human/mouse/rat/canine/monkey plasma albumin was studied.
(§2) • 1) Matrix preparation: on the day of the assay, plasma was thawed in cold water and centrifuged at 3220 rpm for 5 min to remove all clots. The pH of the resulting plasma was measured and adjusted to 7.4±0.1 using 1% phosphoric acid or IN sodium hydroxide as needed. • 2) Dilution procedure for the assay compound: the assay compound was dissolved in dimethyl sulfoxide (DMSO) to prepare stock solutions with concentrations of 10 mM and 2 mM, respectively. A 40 μM working solution was prepared by diluting 2 μL of stock solution (2 mM) with 98 μL of DMSO. A 400 μM working solution of the control compound was prepared by diluting 10 μL of stock solution with 240 μL of DMSO. The working solution of the compound (5 μL) was mixed well with a blank matrix (995 μL) at a ratio of 1:200 to prepare a loading matrix.
(§3) • a) An equal volume of 30 μL of loading matrix (n=2) was transferred to a sample collection plate to prepare a time 0 (TO) sample for residue determination. The sample was immediately matched with the corresponding blank buffer to a final volume of 60 μL, and the volume ratio of plasma to buffer in each well was 1:1. […] The mixture was centrifuged at 4000 rpm for 20 min and 100 μL of supernatant from each sample was analyzed by LC-MS/MS.

mouse plasma albumin = test: Plasma protein binding (ultracentrifugation), mouse; type: in vitro ADME; also: tested at 0.2 µM
Description: as §1, §2, §3

ERK2 kinase, sequence (P28482 whole entry): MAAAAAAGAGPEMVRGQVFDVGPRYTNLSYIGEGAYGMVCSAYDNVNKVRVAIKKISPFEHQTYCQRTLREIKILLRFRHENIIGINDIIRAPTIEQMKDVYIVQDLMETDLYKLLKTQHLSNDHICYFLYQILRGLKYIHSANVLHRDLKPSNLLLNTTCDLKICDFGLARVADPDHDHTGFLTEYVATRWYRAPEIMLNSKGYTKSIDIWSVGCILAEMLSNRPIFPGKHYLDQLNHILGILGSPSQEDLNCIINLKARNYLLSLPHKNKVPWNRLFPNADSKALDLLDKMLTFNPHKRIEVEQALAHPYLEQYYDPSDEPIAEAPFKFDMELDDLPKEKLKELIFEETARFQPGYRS

Q: How did the IC50 (ERK2 kinase) turn out when `Cc1cccc(CN2C(=O)c3nc(-c4nc(Nc5ccnn5C)ncc4C)sc3C23COC3)n1` [WX001] was run?
A: 0.54 nM

Q: What about the TGI ([1]; 12.5 mg/kg) of the same molecule?
A: 45%

Q: And the TGI ([1]; 25 mg/kg)?
A: 58%

Q: And the TGI ([1]; 50 mg/kg)?
A: 102%

Q: And the “Plasma protein binding rate (unbound %)” value (human plasma albumin)?
A: 15.9%

Q: What about the “Plasma protein binding rate (unbound %)” value (mouse plasma albumin) of the same molecule?
A: 11.7%
